{"source": "paper PMC3681751", "about": "“Identification of a Novel Antimicrobial Peptide from Human Hepatitis B Virus Core Protein Arginine-Rich Domain (ARD)” (PLoS Pathogens, 2013)", "key": {"[1]": {"system": "E. coli", "assay": "Killing kinetics", "format": "cell-based, Escherichia coli", "details": "4 µM peptide (1×MBC), 37°C, triplicates", "procedure": "For measurement of killing kinetics, bacteria and peptides were prepared as described above. Fifty µl of bacteria were mixed with fifty µl of peptides at the concentrations corresponding to MBC and were incubated at 37°C. At the indicated time, bacteria were serially diluted and placed on Mueller-Hinton broth agar plates for the viability measurement."}, "[2]": {"system": "P. aeruginosa", "assay": "Effect of added LPS on bactericidal activity", "format": "cell-based, Pseudomonas aeruginosa", "details": "2 µM peptide (1×MBC), LPS from P. aeruginosa or E. coli at 50 µg/ml, 3 hours, triplicates", "procedure": "To determine whether LPS of Gram-negative bacteria could serve as a potential target of HBc147-183, LPS (0.05 to 50 µg/ml) from either P. aeruginosa or E. coli (Sigma) were incubated with both P. aeruginosa and 2 µM HBc147-183 for three hours, respectively. […] In addition, HBc147-183 preferentially bound to the LPS from P. aeruginosa, rather than that from E. coli. However, the addition of anti-LPS antibody (Genetex Co.) cannot sufficiently neutralize the bactericidal activity of HBc147-183 (Figure 5). […] Alternatively, HBc147-183 and the anti-LPS polyclonal antibody used here could bind predominantly to two different epitopes on the LPS.\nFigure 5 Dose response effects of LPS and LPS antibody (triangle) on the bactericidal activity of HBc147-183. LPS from P. aeruginosa (square) and E. coli (diamond), and LPS antibody (triangle) were mixed with P. aeruginosa and HBc147-183 (1×MBC) for 3 hours. The bacteria were then plated on MH agar for the measurement of viability. Samples were measured in triplicates."}, "[3]": {"system": "HEK293 cells", "assay": "Cytotoxicity, MTT assay", "format": "cell-based, human", "details": "1 hour at 37°C; HBc147-183 at 100 µM, melittin at 3.125 µM; triplicates", "procedure": "(§1) Cytotoxicity was measured for HepG2, Huh7, HEK293, and Vero cells by MTT assay. Cells were seeded at 10^4 cells/well in a 96-well plate and serial dilutions of peptides were added into each well. PBS was used as a negative control and melittin was used as a positive control. After 1 hour of incubation, the medium were replaced by fresh medium containing 10% MTT solution (Promega), and the plate was incubated for 4 hours in 5% CO2 at 37°C. The absorbance at the wavelength of 595 nm was measured by an ELISA reader (Bio-Rad model 680)."}, "[4]": {"system": "HepG2 cells", "assay": "Cytotoxicity, MTT assay", "format": "cell-based, human", "details": "1 hour at 37°C; HBc147-183 at 100 µM, melittin at 3.125 µM; triplicates", "procedure": "as §1"}, "[5]": {"system": "Huh7 cells", "assay": "Cytotoxicity, MTT assay", "format": "cell-based, human", "details": "1 hour at 37°C; HBc147-183 at 100 µM, melittin at 3.125 µM; triplicates", "procedure": "as §1"}, "[6]": {"system": "HepG2 cells", "assay": "Peptide uptake into mammalian cells", "format": "cell-based, human", "details": "data not shown", "procedure": "To set up CFSE cell proliferation assay, 293 cells (human kidney origin) and Vero cells (monkey kidney origin) were resuspended in PBS to a final concentration of 10^6 cells/ml, before incubation with 10 µM CFSE dye (CellTrace CFSE cell proliferation kit, Invitrogen) at 37°C for 10 min. To quench the staining, ice-old culture media were then added and incubated on ice for 5 min. Labeled cells were then pelleted and washed three times by fresh medium containing 10% FBS before seeding into six well plates at a density of 3.3×10^5cells/well. After 20 h, the medium was removed and incubated with fresh medium containing 5, 25 and 100 µM HBc 147-183 for one hour (FITC-labeled ARD peptide had been largely internalized in 10 minutes after the addition of ARD peptides to the medium of HepG2 cells). Forty-eight hours later, cells were harvested and analyzed by flow cytometry (FACSCanto, BD Bioscience)."}, "[7]": {"assay": "In vitro peptide-LPS binding on streptavidin beads (LAL test)", "set-up": "species or system Pseudomonas aeruginosa", "details": "biotinylated peptide 0-2.5 µM on streptavidin beads, 5 µg/ml LPS; unbound LPS by LAL test; triplicates", "procedure": "Several kinds of peptide-LPS or peptide-Lipid A binding assays were performed in this study: 1) Streptavidine-conjugated beads (Dynabeads MyOne Streptavidin T1, Invitrogen) were blocked by P. aeruginosa LPS (Sigma) at 37°C for 1.5 hour. After washing with PBST (PBS, pH 7.4 containing 0.1% (w/v) Tween-20), aliquots containing 250 pmol streptavidine-conjugated beads were incubated with a reaction mixture overnight at 4°C. The reaction mixture was prepared by mixing increasing amounts of biotinylated peptide HBc147-183 (0, 0.004, 0.02, 0.1, 0.5 and 2.5 µM) and 5 µg/ml P. aeruginosa LPS (Sigma) or 200 µg/ml E. coli lipid A (Sigma), at 37°C for 3 hour. After incubation overnight at 4°C, the reduction of LPS (or Lipid A) in the supernatants were measured by the Limulus Amebocyte Lysate (LAL) test (Charles River Endosafe) with an ELISA reader (Molecular Devices). The amount (EU/ml) of LPS was calculated according to the standard curve prepared with Endosafe Control Srandard Endotoxin. […] After trypsinization, the trypsin-released LPS in the supernatants were collected and measured by the Limulus Amebocyte Lysate (LAL) test. […] Plate-bound HBc147-183 was measured by streptavidin conjugated with HRP (1∶10000 dilution) for 1 hour at 37°C. […] The absorption was measured at 450 nm with a reference wavelength at 655 nm."}}, "note": "Residues, ends and D or L forms follow the SMILES beside them."}
{"smiles": "CC(C)[C@H](NC(=O)[C@@H](NC(=O)[C@@H](N)[C@@H](C)O)C(C)C)C(=O)N[C@@H](CCCNC(=N)N)C(=O)N[C@@H](CCCNC(=N)N)C(=O)N[C@@H](CCCNC(=N)N)C(=O)NCC(=O)N[C@@H](CCCNC(=N)N)C(=O)N[C@@H](CO)C(=O)N1CCC[C@H]1C(=O)N[C@@H](CCCNC(=N)N)C(=O)N[C@@H](CCCNC(=N)N)C(=O)N[C@@H](CCCNC(=N)N)C(=O)N[C@H](C(=O)N1CCC[C@H]1C(=O)N[C@@H](CO)C(=O)N1CCC[C@H]1C(=O)N[C@@H](CCCNC(=N)N)C(=O)N[C@@H](CCCNC(=N)N)C(=O)N[C@@H](CCCNC(=N)N)C(=O)N[C@@H](CCCNC(=N)N)C(=O)N[C@@H](CO)C(=O)N[C@@H](CCC(N)=O)C(=O)N[C@@H](CO)C(=O)N1CCC[C@H]1C(=O)N[C@@H](CCCNC(=N)N)C(=O)N[C@@H](CCCNC(=N)N)C(=O)N[C@@H](CCCNC(=N)N)C(=O)N[C@@H](CCCNC(=N)N)C(=O)N[C@@H](CO)C(=O)N[C@@H](CCC(N)=O)C(=O)N[C@@H](CO)C(=O)N[C@@H](CCCNC(=N)N)C(=O)N[C@@H](CCC(=O)O)C(=O)N[C@@H](CO)C(=O)N[C@@H](CCC(N)=O)C(=O)N[C@@H](CS)C(=O)O)[C@@H](C)O", "note": "[HBc147-183] (H-TVVRRRGRSPRRRTPSPRRRRSQSPRRRRSQSRESQC-OH; N-terminus and C-terminus assumed)", "values": [{"measurement": "Time to complete killing", "setting": "[1]", "result": 180, "unit": "min"}, {"measurement": "Bactericidal activity in the presence of LPS", "setting": "[2]", "result": "significantly reduced"}, {"measurement": "Cell viability / cytotoxicity (MTT)", "setting": "[3]", "result": "low level of cytotoxicity"}, {"measurement": "Cell viability / cytotoxicity (MTT)", "setting": "[4]", "result": "low level of cytotoxicity"}, {"measurement": "Cell viability / cytotoxicity (MTT)", "setting": "[5]", "result": "low level of cytotoxicity"}, {"measurement": "Penetration through the cell membrane", "setting": "[6]", "result": "can penetrate through the cell membrane"}, {"measurement": "Binding to LPS", "setting": "[7]", "result": "capable of binding to LPS"}]}
